Patent US20230116733A1, “NOVEL INDAZOLE DERIVATIVE AND USE THEREOF” (KOREA RESEARCH INSTITUTE OFCHEMICAL TECHNOLOGY, priority 2019, published 2023)
Entries after “also recorded” stand apart in the source; their conditions may differ. Counter-ions that a name gives are not always drawn. Like-named read-outs stand apart in the source and are kept apart here.

Assays:
K562 = test: Assay for anticancer activity, cell viability (Cell Counting Kit-8); type: cell-based; details: K562 cells, 10 μM compound, 3 days
Method: (§1) Assay for anticancer activity was conducted as follows. Corresponding cancer cells were seeded at a density of 4,000 cells/well into 96-well plates and stabilized for 24 hours. Thereafter, the cells in each well were treated with 10 μM of the each of the compounds for 3 days. Then, cell viability was assayed using Cell Counting Kit-8 from Dojindo.

U937 = test: as above; type: cell-based; details: U937 cells, 10 μM compound, 3 days
Method: as §1

TRIB2 [1] = target: T1, TRIB2 (Homo sapiens, UniProt Q92519); test: TRIB2 kinase activity assay (Eurofins, 33P-ATP filter binding); type: biochemical; design: purchased Eurofins
T1 sequence (Q92519 1-343): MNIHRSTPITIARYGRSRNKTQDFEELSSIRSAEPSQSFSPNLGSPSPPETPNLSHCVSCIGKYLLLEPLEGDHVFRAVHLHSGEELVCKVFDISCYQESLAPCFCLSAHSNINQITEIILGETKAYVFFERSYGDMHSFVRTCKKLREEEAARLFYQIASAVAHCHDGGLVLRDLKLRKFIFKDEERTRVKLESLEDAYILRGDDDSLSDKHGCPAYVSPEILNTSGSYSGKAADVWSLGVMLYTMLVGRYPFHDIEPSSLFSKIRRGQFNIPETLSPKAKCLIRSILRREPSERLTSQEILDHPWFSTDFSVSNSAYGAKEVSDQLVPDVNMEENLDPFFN
Method: TRIB2 kinase activity assay was conducted in Eurofins. […] Afterward, the reaction was terminated with 0.5% phosphoric acid.

HepG2 = test: Assay for anticancer activity, cell viability (Cell Counting Kit-8); type: cell-based; details: for Cell viability (% of Con. 10 μM) HepG2: HepG2 cells, 10 μM compound, 3 days
Method: as §1

A549 = test: as above; type: cell-based; details: A549 cells, 10 μM compound, 3 days
Method: as §1

YAP [2] = test: Phosphorylation of YAP protein in liver cancer cells (FIG. 1); type: cell-based
YAP [3] = test: p-YAP level in ovarian cancer cell line A2780 (FIG. 1); type: cell-based
TRIB2 [4] = target: T1, TRIB2; test: Phosphorylation of TRIB2 protein in liver cancer cells (FIG. 1); type: cell-based; design: endogenous in cells; host or cells: HepG2; details: liver cancer cell line HepG2, dose-dependent
[5] = human TRIB2, 15 μM gamma-33P-ATP, 120 minutes at room temperature, read-out: TRIB2 Kimase activity assay IC50

SMILES | Cell viability (% of Con. 10 μM) K562 (K562) | Cell viability (% of Con. 10 μM) U937 (U937) | IC50 (TRIB2 [1]; [5]) [µM] | Cell viability (% of Con. 10 μM) HepG2 (HepG2) | Cell viability (% of Con. 10 μM) A549 (A549) | other results
CC(C)(C)OC(=O)N1CCC(NC(=O)c2n[nH]c3ccc(-c4cccnc4F)cc23)CC1 [Compound 1, tert-butyl-4-(5-(2-fluoropyridin-3-yl)-1H-indazole-3-carboxamido)piperidine-1-carboxylate] | 49 % of Con. | 34 % of Con. | 0.01 to 0.1 | – | – | –
O=C(NC1CCNCC1)c1n[nH]c2ccc(-c3cccnc3F)cc12 [Compound 2, 5-(2-fluoropyridin-3-yl)-N-(piperidin-4-yl)-1H-indazole-3-carboxamide] | 16 % of Con. | 12 % of Con. | 0.01 to 0.1 | – | – | –
O=C(NC1CCNCC1)c1n[nH]c2ccc(-c3cccnc3)cc12 [Compound 4, N-(piperidin-4-yl)-5-(pyridin-3-yl)-1H-indazole-3-carboxamide] | 41 % of Con. | 50 % of Con. | 0.01 to 0.1 | – | – | –
O=C(Nc1ccncc1)c1n[nH]c2ccc(-c3cccnc3F)cc12 [Compound 17, 5-(2-fluoropyridin-3-yl)-N-(pyridin-4-yl)-1H-indazole-3-carboxamide] | – | – | 0.001 to 0.01 | 15 % of Con. | 17 % of Con. | inhibition of the growth of liver cancer cell line HepG2 (in words) (HepG2; HepG2): highly inhibitory; YAP protein degradation (YAP [2]): promote YAP protein degradation; inhibitory activity against YAP (in words) (YAP [2]): inhibitory activity against YAP; phosphorylation of YAP protein (YAP [2]; liver cancer cell line HepG2, dose-dependent, FIG. 1): decreases the phosphorylation; level of p-YAP (YAP [3]): reduce the level of p-YAP; also recorded: has an inhibitory activity against YAP; phosphorylation of TRIB2 protein (TRIB2 [4]): decreases the phosphorylation
CC1(C)Cc2ccc(NC(=O)c3n[nH]c4ccc(-c5cccnc5F)cc34)cc2CN1 [Compound 71, N-(3,3-dimethyl-1,2,3,4-tetrahydroisoquinolin-7-yl)-5-(2-fluoropyridin-3-yl)-1H-indazole-3-carboxamide] | – | – | 0.001 to 0.01 | 9 % of Con. | 10 % of Con. | –
O=C(Nc1ccncc1)c1n[nH]c2ccc(-c3cnn(C4CCNCC4)c3)cc12 [Compound 73, 5-(1-(piperidin-4-yl)-1H-pyrazol-4-yl)-N-(pyridin-4-yl)-1H-indazole-3-carboxamide hydrochloride] | – | – | – | 36 % of Con. | 49 % of Con. | IC50 (TRIB2 [1]): 0.01 to 0.1 µM
